Literature values as cited in patent publication US20040110828A1, “Tetrahydrocannabinol compositions and methods of manufacture and use thereof” (priority 2002, published 2004).

CCCCCc1cc(O)c2c(c1)OC(C)(C)[C@@H]1CCC(C)=C[C@@H]21 [Delta 9-THC, Delta 9-tetrahydrocannabinol]
half-life of blood level (IV administration, slow phase after the initial distribution (first 30 minutes)): ≥ 19 h | compound and its metabolites remaining in the body (one week after an IV injection of a single dose): 25-30%
